Reference: patent publication US9145424B2, “Treatment of amyotrophic lateral sclerosis” (Northwestern University, priority 2008, dated 2015)
Read-outs that look alike come from different tables or passages of the source. Each block holds one compound with its values, some of them ahead of it.

Key:
[1] = test system: proteasome activity (Ubi-YFP degradation); experiment: Proteasome activity assay (Ubi-YFP in HeLa cells); assay type: cell-based; details: 25 μM compound, 1 μM MG132
Description: FIG. 7. Arylsulfanyl pyrazolones prevent MG132-induced accumulation of Ubi-YFP. HeLa cells were co-transfected with Ubi-YFP and CMV-CFP plasmids, treated with 1 μM MG132 and 25 μM arylsulfanyl pyrazolones and Ubi-YFP fluorescence intensity normalized to CFP.
Since the CMB-003299 cytotoxicity of SOD1 protein aggregates may involve inhibition of proteasome activity, compounds that stimulate proteasome activity could reverse or prevent mutant SOD1-induced cytotoxicity. Thus, active compounds were tested for the ability to stimulate proteasome activity using a cell line expressing ubiquitin-conjugated YFP [Ubi-YFP 74]. In these cells, increased proteasome activity causes increased degradation of Ubi-YFP and decreased YFP fluorescence. Conversely, compounds that inhibit proteasome activity increase accumulation of Ubi-YFP and enhanced YFP fluorescence. As expected, MG132 augments YFP fluorescence intensity ˜3-fold compared to untreated controls (FIG. 7). […] Protein aggregates are present in the absence of MG132 and aggregation is suppressed following treatment with a provided compound.
HeLa cells (20,000/chamber) were plated on 8 chambered Tissue-tek coverglass pretreated with 1 mg/ml poly-D-lysine and allowed to adhere for 18 h at 37° C./5% CO2. Cells were transfected with 0.2 μg each CMV-CFP and Ubi-YFP plasmids using Lipofectamine 2000 according to manufacturer's instructions. Cells were allowed to express CFP and Ubi-YFP for 18 h followed by a 6 h incubation with test compounds (25 μM). MG132 (1 μM) was added for a final 18 h incubation and Ubi-YFP degradation assessed by fluorescence microscopy. Fluorescence intensity of CFP and YFP was calculated on a cell-by-cell basis from captured images using AxioVision software (Zeiss). YFP fluorescence was normalized to CFP fluorescence.

[2] = test system: PC12 cells that express mutant G93A SOD1; experiment: Mutant SOD1-induced cytotoxicity protection assay; details: for Corresponding % viability: rat, 48 h
Description: This idea was tested by examining the sensitivity of PC12 cells to SOD1 aggregates in the presence and absence of proteasome inhibitor MG132. PC12 cells expressing no SOD1, wild type SOD1, G85R SOD1 or G93A SOD1 were grown with or without MG132 (FIG. 1).
PC12 cells expressing G93A SOD1 were treated with 100 nM MG132 with or without co-treatment with geldanamycin or radicicol.

[3] = In vitro microsomal stability, human; assay type: in vitro ADME; details: Human
Description: (§1) Metabolism (microsome, S9 fraction, CYP450): Liver Cytochrome P450 (CYP450) enzymes are the major route for xenobiotic metabolism and microsomal and hepatocyte stability is the best predictor of pharmacokinetic half-life. Cross-species comparisons of metabolism in liver microsomes can predict potential issues with liver toxicity in humans. Selected active compounds are tested in liver microsomes from efficacy species (mouse), toxicity species (rat, dog, monkey), and humans for metabolic stability.
(§2) CMB-087229 was sent for an evaluation of its in vitro ADME properties.
(§3) Two possible amines, secondary and tertiary AAP analogues, were initially screened in the protection assay (FIG. 30) and for in vitro microsomal stability (Table 1) and Caco-2 permeability (Table 2). […] The solubilities of 2 and 3 were good in aqueous media (≧150 μM), and no precipitation occurred at the highest concentration. The in vitro plasma half-life for both compounds was >60 min.

[4] = In vitro plasma stability; assay type: in vitro ADME
Description: Plasma stability: Plasma stability of active compounds is assessed in efficacy species (mouse), toxicity species (rat, dog, monkey), and human cells.

[5] = In vitro microsomal stability, mouse; assay type: in vitro ADME; details: Mouse; for microsomal CLint: mouse, liver microsomes, read-out: CLint (microsomal intrinsic clearance)
Description: as §1, §2, §3

Caco-2 = experiment: In vitro Caco-2 permeability; assay type: in vitro ADME
Description: General Permeability: High membrane permeability is required for effective GI absorption and optimal bioavailability. Passive permeability is typically assessed in the PAMPA artificial membrane assay (Kansy et al., J. Med. Chem. 2002, 45(8), 1712-1722). Cell-based permeability determinations using the Caco-2 cell assay are more resource intensive but more predictive of active transport or efflux in vivo (Artursson et al., Adv. Drug. Deliv. Rev. 2001, 46(1-3), 27-43). Caco-2 assays are performed as needed during SAR development.

Aqueous solubility = assay type: physicochemical; details: no precipitation at the highest concentration
Description: Solubility: Because compounds are stored in DMSO, it is necessary to determine aqueous solubility of initial hit compounds and their analogs. High solubility in aqueous solution is necessary for high GI absorption, bioavailability, and for chemical formulation. Compounds should be soluble in aqueous solution at >10 μg/ml. Solubility of >50 μg/ml is preferred.

cortical neurons = experiment: Cortical neuron assay; assay type: cell-based
Description: Selected compounds were tested with cortical neurons—a useful preliminary step prior to the expensive and time-consuming ALS mouse model studies. Although long linker compound 24 and cyclic linker compound 27 are active in the PC12 assay, they are not active with cortical neurons. Compound 3 gave better results than the ether counterpart (1), recovering 100% neuronal activity at 10 μM concentration.

[6] = assay type: in vitro ADME; details: male, Sprague Dawley, rat, pH 7.4
[7] = test system: PC12 cells expressing G93A SOD1; experiment: Sensitivity of PC12 cells to proteasome inhibitor, calcein-AM viability; assay type: cell-based; details: compared with MG132
Description: FIGS. 1A-C. […] Cell survival was determined using the viability stain calcein-AM.

[8] = Rattus norvegicus, PC-12, read-out: Best EC50, PC12 G93A SOD1 cells, MG132, calcein-AM viability
[9] = Rattus norvegicus, PC-12, read-out: EC50 after Normalization, normalised with the corresponding 3299 EC50

SMILES: Cc1cc(SCc2cc(=O)[nH][nH]2)c(C)cc1Cl [CMB-003299]
- effect on MG132-induced Ubi-YFP fluorescence [1]: strongly inhibit
- EC50 [2, 8]: 0.4 µM

SMILES: O=c1cc(COc2cc(Br)cc(Br)c2)[nH][nH]1 [CMB-087628-1]
- EC50 [2, 8]: 1.54 µM
- EC50 [2, 9]: 0.51 µM
- Corresponding % viability [2]: 125%

SMILES: O=c1cc(COc2cccc(Br)c2)[nH][nH]1 [CMB-087642-1]
- EC50 [2, 8]: 3.06 µM
- EC50 [2, 9]: 1.02 µM
- Corresponding % viability [2]: 144%

SMILES: O=c1cc(COc2cccc(-c3ccccc3)c2)[nH][nH]1 [CMB-087643-1]
- EC50 [2, 8]: 8.53 µM
- EC50 [2, 9]: 2.84 µM
- Corresponding % viability [2]: 96%

SMILES: O=c1cc(COc2cc(-c3ccccc3)cc(-c3ccccc3)c2)[nH][nH]1 [CMB-087644-1]
- EC50 [2, 8]: 11.1 µM
- EC50 [2, 9]: 3.7 µM
- Corresponding % viability [2]: 68%

SMILES: O=c1cc(CN(c2cc(Cl)cc(Cl)c2)S(=O)(=O)c2ccccc2)[nH][nH]1 [CMB-087645-1]
- EC50 [2, 8]: 9.04 µM
- EC50 [2, 9]: 1.43 µM
- Corresponding % viability [2]: 111%

SMILES: O=c1cc(CNc2cc(Cl)cc(Cl)c2)[nH][nH]1 [CMB-087650-1]
- EC50 [2, 8]: 2.11 µM
- EC50 [2, 9]: 0.33 µM
- Corresponding % viability [2]: 128%

- T1/2 ([3]; NADPH-absent): >3 h
- T1/2 ([3]; NADPH-dependent): 1.58 h
- microsomal CLint ([3]; liver microsomes, NADPH-dependent, read-out: CLint (microsomal intrinsic clearance)): 24 µL/min/mg
- in vitro plasma half-life [4]: > 1 h
- T1/2 ([5]; NADPH-absent): 1.67 h
- T1/2 ([5]; NADPH-dependent): 0.5 h
- microsomal CLint ([5]; NADPH-absent): 23 µL/min/mg
- microsomal CLint ([5]; NADPH-dependent): 78 µL/min/mg
- Efflux ratio (B→A)/(A→B) (Caco-2): 47.1
- Papp (A→B) (Caco-2): 0.6 10^−6 cm/s
- Papp (B→A) (Caco-2): 28.1 10^−6 cm/s
- solubility in aqueous media (Aqueous solubility): ≥ 150 µM
SMILES: O=c1cc(CNc2cc(Cl)cc(Cl)c2)[nH][nH]1 [Compound 2, 5-((3,5-Dichlorophenylamino)methyl)-1H-pyrazol-3(2H)-one, reference compound]

- T1/2 ([3]; NADPH-absent): >3 h
- T1/2 ([3]; NADPH-dependent): >3 h
- in vitro plasma half-life [4]: > 1 h
- T1/2 ([5]; NADPH-absent): >3 h
- T1/2 ([5]; NADPH-dependent): 0.417 h
- microsomal CLint ([5]; NADPH-dependent): 93 µL/min/mg
- Efflux ratio (B→A)/(A→B) (Caco-2): 3.5
- Papp (A→B) (Caco-2): 2.2 10^−6 cm/s
- Papp (B→A) (Caco-2): 7.6 10^−6 cm/s
- solubility in aqueous media (Aqueous solubility): ≥ 150 µM
SMILES: CN(Cc1cc(=O)[nH][nH]1)c1cc(Cl)cc(Cl)c1 [Compound 3, 5-(((3,5-Dichlorophenyl)(methyl)amino)methyl)-1H-pyrazol-3(2H)-one]
- neuronal activity recovered (cortical neurons; 10 μM): 100%

SMILES: CN(CCCc1cc(=O)[nH][nH]1)c1cc(Cl)cc(Cl)c1 [Compound 24, 5-(3-((3,5-Dichlorophenyl)(methyl)amino)propyl)-1H-pyrazol-3(2H)-one]
- activity with cortical neurons, in words (cortical neurons): not active
- activity in the cytotoxicity protection assay, in words [2]: active

SMILES: O=c1[nH][nH]c2c1CN(c1cc(Cl)cc(Cl)c1)CC2 [Compound 27, 5-(3,5-Dichlorophenyl)-4,5,6,7-tetrahydro-1H-pyrazolo[4,3-c]pyridin-3(2H)-one]
- activity with cortical neurons, in words (cortical neurons): not active
- activity in the cytotoxicity protection assay, in words [2]: active

SMILES: CN(Cc1cc(=O)n(Cc2ccccc2)[nH]1)c1cc(Cl)cc(Cl)c1 [Compound 29, 2-Benzyl-5-(((3,5-dichlorophenyl)(methyl)amino)methyl)-1H-pyrazol-3(2H)-one]
- activity in the cytotoxicity protection assay, in words [2]: comparable in activity to parent compound 3

SMILES: CN(Cc1cc(=O)n(C)[nH]1)c1cc(Cl)cc(Cl)c1 [Compound 30, 5-(((3,5-Dichlorophenyl)(methyl)amino)methyl)-2-methyl-1H-pyrazol-3(2H)-one]
- activity in the cytotoxicity protection assay, in words [2]: comparable in activity to parent compound 3

SMILES: CN(Cc1cc(=O)[nH]n1C)c1cc(Cl)cc(Cl)c1 [Compound 31, 5-(((3,5-Dichlorophenyl)(methyl)amino)methyl)-1-methyl-1H-pyrazol-3(2H)-one]
- activity in the cytotoxicity protection assay, in words [2]: devoid of activity

SMILES: Cc1c(CN(C)c2cc(Cl)cc(Cl)c2)n(C)n(C)c1=O [Compound 32, 5-(((3,5-Dichlorophenyl)(methyl)amino)methyl)-1,2,4-trimethyl-1H-pyrazol-3(2H)-one]
- activity in the cytotoxicity protection assay, in words [2]: devoid of activity

SMILES: CN(Cc1cc(=O)n(C)n1C)c1cc(Cl)cc(Cl)c1 [Compound 33, 5-(((3,5-Dichlorophenyl)(methyl)amino)methyl)-1,2-dimethyl-1H-pyrazol-3(2H)-one]
- activity in the cytotoxicity protection assay, in words [2]: devoid of activity

SMILES: CN1N=C(CN(C)c2cc(Cl)cc(Cl)c2)C(C)(C)C1=O [Compound 34, 3-(((3,5-Dichlorophenyl)(methyl)amino)methyl)-1,4,4-trimethyl-1H-pyrazol-5(4H)-one]
- activity in the cytotoxicity protection assay, in words [2]: devoid of activity

- % Mean ± S.E. ([6]; 0 min, 5 μM): 100 ± 11.5%
- RR Mean (Response Ratio) ([6]; 0 min, 5 μM): 0.711
- % Mean ± S.E. ([6]; 0 min, 15 μM): 100 ± 7.11%
- RR Mean (Response Ratio) ([6]; 0 min, 15 μM): 22.88
- % Mean ± S.E. ([6]; 20 min, 15 μM): 59.2 ± 14.9%
- RR Mean (Response Ratio) ([6]; 20 min, 15 μM): 13.54
- % Mean ± S.E. ([6]; 40 min, 5 μM): 45.2 ± 8.1^ %
- RR Mean (Response Ratio) ([6]; 40 min, 5 μM): 0.321
SMILES: Cc1cc(-c2ccccc2)nnc1NCCN1CCOCC1 [Mina, Minaprine, reference compound]

- % Mean ± S.E. ([6]; 0 min, 15 μM): 100 ± 12.6%
- RR Mean (Response Ratio) ([6]; 0 min, 15 μM): 0.237
- % Mean ± S.E. ([6]; 20 min, 15 μM): 109 ± 13.3%
- RR Mean (Response Ratio) ([6]; 20 min, 15 μM): 0.261
- % Mean ± S.E. ([6]; 40 min, 15 μM): 84.8 ± 21.8%
- RR Mean (Response Ratio) ([6]; 40 min, 15 μM): 0.201
SMILES: O=c1cc(CS(=O)(=O)c2ccc(Cl)cc2)[nH][nH]1 [TC-II-70]

SMILES: O=c1cc(CSCc2ccc(Cl)cc2)[nH][nH]1 [TC-II-123]
- EC50 [2, 8]: 4.2 µM

SMILES: O=c1cc(CSCCOc2ccccc2)[nH][nH]1 [TC-II-140]
- EC50 ([2]; read-out: Best EC50, PC12 G93A SOD1 cells, MG132, calcein-AM viability): 6.2 µM

- % Mean ± S.E. ([6]; 0 min, 15 μM): 100 ± 7.75%
- % Mean ± S.E. ([6]; 60 min, 15 μM): 96.1 ± 7.66%
SMILES: CC(=O)CC(c1ccccc1)c1c(O)c2ccccc2oc1=O (stereo not drawn) [War, warfarin, reference compound]

SMILES: CC(C)C[C@H](NC(=O)[C@H](Cc1ccccc1)NC(=O)c1cnccn1)B(O)O [bortezomib]
- sensitivity to proteasome inhibition, in words [7]: Qualitatively similar results
